Assay results as given in PMC9785144, “Metal Coordination and Biological Screening of a Schiff Base Derived from 8-Hydroxyquinoline and Benzothiazole” (Pharmaceutics, 2022).
Read-outs that look alike come from different tables or passages of the source.

Experiments:
[1] = UV-vis spectrophotometric titration for proton dissociation constants; type: physicochemical; settings: for pKa: 60% (v/v) DMSO/H2O solvent mixture, 60% (v/v) DMSO/H2O, I = 0.10 M (KCl), 25 °C
Experimental: The pH-potentiometric titrations for the calibration of the electrode system were performed in 30% (v/v) and 60% (v/v) DMSO/H2O solvent mixtures using 0.10 M KCl background electrolyte at 25.0 ± 0.1 °C as described in our previous works.
A Thermo Evolution 220 spectrophotometer was used to record the UV-visible (UV-vis) spectra in the 260 to 750 nm window. The path length was varied between 2 and 50 mm. As a result of the limited solubility of the compounds in water, the spectrophotometric titrations were performed to determine the proton dissociation constants (pKa) of the ligand and its complex at 5 μM concentration using 5 cm path length. Due to the light sensitivity of the studied compounds, the samples were covered and were kept in the dark during the titrations. The starting sample volume was 50 mL. These titrations were performed in the pH range 2.0–12.5 (30% (v/v) DMSO/H2O) and 2.0–14.0 (60% (v/v) DMSO/H2O). Samples were deoxygenated by bubbling purified argon through them for approximately 10 min prior to the measurements and argon was also passed over the solutions during the spectrophotometric titrations. Calculation of the proton dissociation constants was performed with the computer program PSEQUAD [28].
Titrations were performed first in 30% (v/v) DMSO/H2O mixture due to the limited water solubility of the ligand. The sample was protected from light and, for a given portion of the sample, the UV-vis spectrum was recorded only once. […] Following this experiment, the titration was repeated in 60% (v/v) DMSO/H2O mixture (Figure 7), and no precipitation was found in the whole pH range (1.73−13.67) under this condition. However, only three deprotonation steps were observed, most probably because one of the deprotonation steps was already completed at the starting pH.
To elucidate the pKa assignment, 2-hydrazinobenzothiazole (considered as a fragment of the title ligand) was titrated under similar conditions to monitor the spectral changes during the deprotonation of the benzothiazole moiety.

[2] = system: HCT-116, A375, CT-26, B16F10 and HaCaT cell lines; assay: Preliminary MTT antiproliferative screening on cell line panel; settings: 20 and 40 μM, 48 h
Experimental: The MTT [32] and Guava ViaCount assays [33, 34] were used to assess cell viability in the absence (negative control) or presence of increasing concentrations of [Ni(HL)(acetate)], [Ru(HL)Cl(DMSO)] and 5-FU (positive control). Briefly, cells were plated at a concentration of 5 × 10^4 cells/mL in 96-well plates (200 μL/well) and cultured for 24 h in the culture conditions described above. Afterwards, supernatant was removed, and cells were incubated with [Ni(HL)(acetate)] and [Ru(HL)Cl(DMSO)] at concentrations ranging from 0.5 to 40 μM or from 0.5 to 100 μM for the 5-FU (positive control). Negative controls were cells maintained in complete culture medium. After 48 h, culture medium was discarded, cells were washed twice with PBS and 50 μL of MTT at 0.5 mg/mL in incomplete medium was added to all wells. After a 2 to 3 h incubation period at 37 °C and 5% CO2 environment, 100 μL DMSO was added to each well to solubilise the formazan crystals, and absorbance was measured at 570 nm using a microplate reader Model 680 (Bio-Rad, CA, USA). Between three to four independent experiments were carried out, with six replicates per condition. GraphPad Prism®8 (GraphPad Software, San Diego, CA, USA) was used to analyse cell proliferation and values were plotted and fit to a standard log dose-response curve. The IC50 values were calculated using Equation (2) [35]:log IC50 = log X1 + {[(Y1 − (Y0)/2)]/(Y1 − Y2)} × (log X2 − log X1)(2) where, Y0/2 is the half-cell density of the negative control; Y1 is the cell density above Y0/2; X1 is the concentration corresponding to Y1; Y2 is the cell density below Y0/2; X2 is the concentration corresponding to Y2. The IC50 was determined by linear interpolation between X1 and X2.
Thus, to evaluate the antiproliferative properties of the newly synthetised metal complexes, a preliminary screening was performed using human (HCT-116 and A375) and murine (CT-26 and B16F10) colon cancer and melanoma cell lines, respectively. […]

[3] = Shake-flask n-octanol/buffer distribution coefficient (D7.4); type: physicochemical; settings: n-octanol/buffered aqueous solution, 25 °C, read-out: logD7.4
Experimental: The distribution coefficient values (D7.4) of the compounds were determined by the traditional shake-flask method in n-octanol/buffered aqueous solution at pH 7.40 (10 mM HEPES buffer, in the absence or in the presence of 0.10 M KCl) at 25.0 ± 0.2 °C. The samples and stock solutions were protected from light until the spectrophotometric concentration determination. The ligand and complex were dissolved at 150 and 100 μM concentrations in n-octanol, respectively. n-Octanol was presaturated with the HEPES solution with the given KCl concentration. The aqueous solution and n-octanol ratio was 9:1 (instead of the usual 1:1 ratio due to the high lipophilicity of the compounds). […] After separation, UV-vis spectra of the compounds in the n-octanol phase were recorded and compared to the spectra of the n-octanol stock solution. D7.4 values were calculated as in the following Equation (1): (1) D7.4=Aoct,1/Aoct,0−Aoct,1×Vwater phase/Voctanol phase where Aoct,0 and Aoct,1 are the absorbance values of the n-octanol phase before and after separation, respectively, Vwater phase and Voctanol phase are the volumes of the two phases.
The distribution coefficients (D7.4) for H2L and the Ru-complex (as model complex) were determined using HEPES buffer (pH = 7.4) for the aqueous phase. Distribution was measured in the absence and presence of 100 mM KCl. […]

CT-26 colon cancer cells = assay: MTT antiproliferative assay, CT-26; type: cell-based, murine; settings: CT-26, MTT, 48 h incubation
Experimental: (§1) Murine colon cancer CT-26 (ATCC® CRL-263™) cells were cultured in RPMI-1640, supplemented with 10% foetal bovine serum (FBS) and 100 IU/mL of penicillin and 100 μg/mL streptomycin (Gibco, Thermo Fisher Scientific, Waltham, MA, USA), hereafter designated as complete culture medium. Human colon cancer HCT-116 (ATCC® CCL-247™), human melanoma A375 (ATCC® CCL-1619™), murine melanoma B16F10 (ATCC® CCL-6475™) cells and human epidermal keratinocytes (HaCaT) were maintained in Dulbecco’s modified Eagle’s medium (DMEM) with high-glucose (4500 mg/L) (Sigma-Aldrich, St. Louis, MO, USA), supplemented with 10% FBS and 100 IU/mL of penicillin and 100 μg/mL streptomycin (Gibco, Thermo Fisher Scientific, Waltham, MA, USA), also designated as complete culture medium. The cell lines were maintained at 37 °C in a 5% CO2 environment and cells were trypsinised every 2–3 days when 80% confluence was reached.
(§2) Negative controls were cells maintained in complete culture medium.

[4] = system: HCT-116 colon cancer cells; assay: MTT antiproliferative assay, HCT-116; type: cell-based, human; settings: HCT-116, MTT, 48 h incubation
Experimental: as §1, §2

[5] = Light sensitivity in DMSO (UV-vis); type: physicochemical
Experimental: For the light sensitivity studies, DMSO solutions were prepared. The starting sample was separated equally for more portions, one was irradiated with diffuse light, while other portions were stored in the dark and measured only once.
The light sensitivity of H2L and its Ru-complex (as model metal compound) were tested by UV-vis spectrophotometry to further understand their behaviour. Samples were dissolved in DMSO and stored in the dark, while one portion was irradiated continuously by diffuse light. […] A relatively fast change is observed for the ligand in the first 1.5 h, and after that the spectrum has only minor changes (Figure 4A). […] Figure S16 depicts the spectral changes visible in Figure 4B. […] In the ligand, this may be due to a photoisomerisation process of the imine bond (Z/E isomers), which is quite common in hydrazones), but not in the Ru-complex, unless what is being observed in the complex solution is due to unbound ligand molecules.

[6] = target: bovine serum albumin (BSA) (Bos taurus, UniProt P02769); assay: Albumin binding by fluorescence quenching and circular dichroism; settings: BSA ca. 20–25 μM, bands centred at ca. 360 nm, compound 5 to 70 μM
Experimental: The concentration of BSA in the experiments was ca. 1.5 μM (in aqueous PBS). The fluorescence emission spectra were recorded between 310 and 575 nm, with λex = 295 nm. Successive additions of the complexes were done directly to the cuvette (optical path 1 cm) and the fluorescence emission spectra were recorded for each one under the same conditions. Blank assays for each sample, consisting in solutions with the same concentration of complex and no BSA, were recorded and subtracted to the corresponding emission spectra containing the fluorophore. The UV-vis spectra of the sample solutions were used to correct the emission spectra, minimizing inner filter and reabsorption phenomena interference.
The concentration of BSA in the experiments was ca. 20–25 μM (in aqueous PBS). The circular dichroism (CD) spectra are an average of three scan accumulations, recorded between 300 and 500 nm, with bandwidth of 1 nm and response of 2 s, using a scanning speed of 100 nm/min. Successive additions of the complexes stock solutions in DMSO were done directly to the cuvette (1 cm) and the CD spectra were recorded under the same conditions after 10 min equilibration. Induced CD spectra were obtained as the CD spectrum of compound-BSA mixture minus the CD spectrum of BSA alone and are expressed as ellipticity in millidegrees.

CT-26 cells = assay: Cell cycle analysis by PI flow cytometry, CT-26; type: cell-based, murine; settings: CT-26, 24 h, sub-toxic concentrations
Experimental: (§3) To understand the potential effects of [Ni(HL)(acetate)] and [Ru(HL)Cl(DMSO)] on cell cycle progression, CT-26 and HCT-116 cells were used. Briefly, cells were plated at a density of 5 × 10^4 cells/mL in 6-well plates (2 mL) and allowed to grow for 24 h at 37 °C with 5% CO2. CT-26 cells were then incubated with [Ni(HL)(acetate)] or [Ru(HL)Cl(DMSO)] at concentrations of 5 and 10 μM or 10 and 20 μM, respectively. For HCT-116 cell line, the tested concentrations were 5 and 7.5 μM, and 7.5 and 12.5 μM for [Ni(HL)(acetate)] and [Ru(HL)Cl(DMSO)], respectively. The positive control group, 5-FU, was tested at 0.5 and 2 μM and 20 and 40 μM for CT-26 and HCT-116, respectively. Negative control group was constituted by cells in the presence of complete culture medium. After a 24 h incubation period, cells were collected by centrifugation at 850× g for 5 min at 4 °C, suspended in 500 µL of ice-cold PBS, and fixed with 500 µL ice-cold 80% ethanol (−20 °C), added drop-by-drop, under gentle mixing. Prior to the analysis, samples were kept at 4 °C for at least 16 h. […] The ModFit LT™ 5.0 software was used to analyse the data and the percentages of cells in each cell cycle phase was determined (Verity Software House, Topsham, ME, USA).

HCT-116 cells [7] = assay: Cell cycle analysis by PI flow cytometry, HCT-116; type: cell-based, human; settings: HCT-116, 24 h, sub-toxic concentrations
Experimental: as §3

HCT-116 cells [8] = assay: Wound-healing migration assay, HCT-116; type: cell-based, human; settings: HCT-116, 12.5 μM, at 22 h (control 50%)
Experimental: To assess cellular migration in the presence or absence of tested compounds, HCT-116 and CT-26 cells were plated at 1.5 × 10^5 and 3 × 10^5 cells/mL in a 12-well plate (1 mL/well) and were allowed to adhere and grow until reaching around 80–90% confluence. A sterile 10 μL pipette tip was used to wound the cell monolayer, followed by a washing step with PBS to remove debris. Then, cells were incubated with the tested compounds suspended in RPMI-1640 (CT-26) or DMEM media (HCT-116) supplemented with 2% FBS and 100 IU/mL of penicillin and 100 μg/mL streptomycin (Gibco, Thermo Fisher Scientific, Waltham, MA, USA), and hereafter designated as RPMI 2% and DMEM 2%, respectively. Under the above mentioned culture conditions, CT-26 cells were incubated with [Ni(HL)(acetate)] or [Ru(HL)Cl(DMSO)] at concentrations of 10 and 15 μM, respectively. […] The positive control, 5-FU, was tested at 1.5 and 40 μM for CT-26 and HCT-116, respectively. Negative control group was constituted by cells maintained in RPMI 2% (CT-26) and DMEM 2% (HCT-116). Images of the wound closure were taken beneath the stage of a Zeiss Axiovert 200 inverted microscope, using a 10× objective and a digital camera (CoolSNAP EZ, Photometrics, Huntington Beach, CA, USA) and recorded by the Metafluor Software at 0, 2, 4, 8, 18, 20 and 22 h following cell monolayer scratching (Molecular Devices, Sunnyvale, CA, USA). […]

Chain of bovine serum albumin (BSA) (P02769 25-607): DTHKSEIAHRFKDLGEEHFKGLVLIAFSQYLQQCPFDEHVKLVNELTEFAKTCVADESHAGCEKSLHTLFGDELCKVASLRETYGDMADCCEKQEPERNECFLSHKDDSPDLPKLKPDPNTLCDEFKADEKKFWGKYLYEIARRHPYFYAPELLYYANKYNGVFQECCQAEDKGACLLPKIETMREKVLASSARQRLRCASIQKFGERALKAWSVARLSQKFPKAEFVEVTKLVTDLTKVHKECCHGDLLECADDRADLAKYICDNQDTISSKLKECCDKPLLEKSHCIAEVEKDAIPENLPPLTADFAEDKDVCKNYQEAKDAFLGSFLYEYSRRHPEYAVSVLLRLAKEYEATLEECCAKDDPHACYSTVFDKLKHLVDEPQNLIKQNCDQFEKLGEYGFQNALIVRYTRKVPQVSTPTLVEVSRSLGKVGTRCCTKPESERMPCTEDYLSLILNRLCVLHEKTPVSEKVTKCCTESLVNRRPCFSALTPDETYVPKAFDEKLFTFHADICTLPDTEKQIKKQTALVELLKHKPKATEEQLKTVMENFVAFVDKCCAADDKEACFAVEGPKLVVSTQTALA

**Q.** With NNc1nc2ccccc2s1 [2-Hydrazinobenzothiazole, 2-hydrazinobenzothiazole, reference compound] as the compound, how does the pKa ([1]; read-out: pKa2) read?
**A.** The pKa was 3.35 ± 0.03.

**Q.** What about the pKa ([1]; read-out: pKa3) of the same compound?
**A.** The pKa was 10.35 ± 0.03.

**Q.** And the pKa ([1]; read-out: pKa4)?
**A.** Its pKa is 12.86 ± 0.03.

**Q.** And the “antiproliferative / cytotoxic effect in preliminary screening” value (from here on “antiproliferative / cytotoxic effect”) [2]?
**A.** Its value is “no effect”.

**Q.** With Oc1cccc2ccc(/C=N/Nc3nc4ccccc4s3)nc12 [H2L, (E)-2-((2-(benzo[d]thiazol-2-yl)Hydrazono)Methyl)Quinolin-8-ol] as the compound, how does the logD at 4 h ([3]; pH 7.4, n-octanol/10 mM HEPES pH 7.4, 0 mM KCl) read?
**A.** Its logD at 4 h is 2.8.

**Q.** What about the logD at 4 h ([3]; pH 7.4, n-octanol/10 mM HEPES pH 7.4, 100 mM KCl) of the same compound?
**A.** The logD at 4 h was 3.

**Q.** What about the “pH range of precipitation” value ([1]; 30% (v/v) DMSO/H2O, 5 μM) of the same compound?
**A.** The value was 3.8−11.0.

**Q.** And the pKa ([1]; read-out: pKa2)?
**A.** Its pKa is 1.99 ± 0.03.

**Q.** What about the pKa ([1]; read-out: pKa3) of the same compound?
**A.** Its pKa is 9.09 ± 0.04.

**Q.** And the pKa ([1]; read-out: pKa4)?
**A.** Its pKa is 12.99 ± 0.04.

**Q.** And the IC50 (CT-26 colon cancer cells; Mus musculus, CT26)?
**A.** Its IC50 is 1.8 ± 0.4 µM.

**Q.** What about the IC50 ([4]; Homo sapiens) of the same compound?
**A.** The IC50 was 3 ± 0.8 µM.

**Q.** And the light sensitivity ([5]; irradiated continuously by diffuse light)?
**A.** The light sensitivity was “strong light sensitivity”.

**Q.** What about the “spectral changes in the dark” value ([5]; stored in the dark, 4 days of monitoring) of the same compound?
**A.** Its value is “only a small change”.

**Q.** And the “induced CD bands with BSA” value [6]?
**A.** The value was “high intensity induced CD bands”.

**Q.** And the “antiproliferative / cytotoxic effect” value [2]?
**A.** Its value is “high cytotoxicity”.

**Q.** For O=Cc1ccc2cccc(O)c2n1 [HQ2CHO, 2-carbaldehyde-8-hydroxyquinoline], which “antiproliferative / cytotoxic effect” value [2] is on record?
**A.** Its value is “cytotoxicity against the human melanoma and colon cancer cell lines”.

**Q.** Which IC50 (CT-26 colon cancer cells) does the source give for CC(=O)[O][Ni][O]c1cccc2ccc(C=NNc3nc4ccccc4s3)nc12 [[Ni(HL)(acetate)]] here?
**A.** The IC50 was 11 ± 2.3 µM.

**Q.** What about the IC50 [4] of the same compound?
**A.** Its IC50 is 8.6 ± 2 µM.

**Q.** What about the cell cycle arrest (CT-26 cells) of the same compound?
**A.** Its cell cycle arrest is “arrested cell cycle at S phase”.

**Q.** What about the cell cycle arrest (HCT-116 cells [7]) of the same compound?
**A.** The cell cycle arrest was “no such effect”.

**Q.** What about the maximum wound closure (HCT-116 cells [8]) of the same compound?
**A.** Its maximum wound closure is 32%.

**Q.** And the “induced CD bands with BSA” value [6]?
**A.** Its value is “high intensity induced CD bands”.
